Source: publication PMC9403976, “Elucidating the path to Plasmodium prolyl-tRNA synthetase inhibitors that overcome halofuginone resistance” (Nature Communications, 2022)
Where “and” joins values, the source holds several entries; their conditions need not be identical. Equal entries are not always repeated.

How the values were obtained:
[1] = system: halofuginone-induced P. falciparum (elevated proline homeostasis); conditions: within five generations (10 days); cited from earlier work
[2] = system: HFGR-I P. falciparum (elevated proline homeostasis and PfcProRS^L482H); conditions: HFGR-I vs wild-type; cited from earlier work
P. falciparum Dd2-2D4 [3] = conditions: halofuginone pressure; cited from earlier work
[4] = system: luciferase-expressing P. berghei ANKA sporozoites; assay: P. berghei liver stage assay in HuH7 cells (luciferase, Bright-Glo); assay type: cell-based, Plasmodium berghei; conditions: for Parasite Load, dose-response point: single replicates
Procedure: (§1) HuH7 cells (Sigma, Cat#: 01042712, Lot:18H009) were cultured in DMEM + L-Glutamine (Gibco) supplemented with 10% (v/v) heat-inactivated FBS (Sigma) and 1% (v/v) antibiotic/antimycotic (Sigma). Hepatocyte cultures were maintained in a standard tissue culture incubator at 37 °C. Anopheles mosquitoes infected with luciferase-expressing P. berghei ANKA sporozoites were obtained from the Sporocore at the University of Georgia. Liver stage P. berghei assays were completed as previously described. Briefly, 4000 HuH7 cells were seeded into 384-well plates (Corning) 1 day prior to infection. Compounds (0–50 µM) were added in triplicate to wells before infection with 4000 P. berghei sporozoites. […] Relative fluorescence and luminescence signal intensities were normalized to the negative control, 1% DMSO. EC50 values were determined using PRISM (V. 8.4.3–9.1.0, GraphPad) through fitting data to a dose-response curve.

HuH7 cells = assay: HuH7 host hepatocyte viability (CellTiter-Fluor); assay type: cell-based, human; conditions: for HuH7 Growth, dose-response point: single replicates
Procedure: as §1, with “infection.” for “infection. Compounds (0–50 µM) were added in triplicate to wells before infection with 4000 P. berghei sporozoites.”

P. falciparum Dd2-2D4 [5] = assay: P. falciparum ABS short-term resistance susceptibility assay; assay type: cell-based, Plasmodium falciparum; conditions: wild-type parasites under intermittent drug pressure
Procedure: Following recrudescence, sensitivity to NCP26 and halofuginone was assayed using the ABS growth assay.

P. falciparum Dd2-2D4 [6] = assay: NCP26 resistance selection under intermittent drug pressure; assay type: cell-based, Plasmodium falciparum; conditions: 10^9 parasites
Procedure: In short, parasites were treated with 4x EC50 NCP26 until no parasites were detected by giemsa staining microscopy. […] This cycle was repeated for ~50 generations (~100 days), corresponding to 5–6 cycles of drug pressure.

Structure (SMILES): O=C(CC1NCCCC1O)Cn1cnc2cc(Br)c(Cl)cc2c1=O (stereo not drawn) [Halofuginone]
- tolerance of halofuginone-induced bulk cultures [1]: 10–20 fold
- fold less sensitive (HFGR-I parasites) [2]: ~ 400 fold
- generations until resistant parasites arise (P. falciparum Dd2-2D4 [3]): < 5 generations

Structure (SMILES): O=C(NC1Cc2ccccc2C1)c1nccnc1NC(=O)N1CCCCC1 [NCP26]
- Parasite Load, dose-response point ([4]; Log[inhibitor] (M) -5.602): 4.50E-01 and 4.96E-01 and 3.82E-01
- Parasite Load, dose-response point ([4]; Log[inhibitor] (M) -6.000): 6.73E-01 and 1.77E+00 and 8.83E-01
- Parasite Load, dose-response point ([4]; Log[inhibitor] (M) -6.301): 2.58E+00 and 1.62E+00 and 1.38E+00
- Parasite Load, dose-response point ([4]; Log[inhibitor] (M) -6.602): 2.09E+01 and 4.21E+01 and 3.50E+01
- Parasite Load, dose-response point ([4]; Log[inhibitor] (M) -7.602): 1.02E+02 and 9.26E+01 and 8.31E+01
- Parasite Load, dose-response point ([4]; Log[inhibitor] (M) -8.602): 9.21E+01 and 5.24E+01 and 5.53E+01
- Parasite Load, dose-response point ([4]; Log[inhibitor] (M) -9.602): 7.79E+01 and 6.82E+01 and 1.12E+02
- Parasite Load, dose-response point ([4]; Log[inhibitor] (M) -9.903): 5.64E+01 and 9.94E+01 and 8.54E+01
- EC50 ([4]; Plasmodium berghei, Huh-7, HuH7 cells infected with sporozoites, ~44 hpi): 232 nM
- EC50 (HuH7 cells; Homo sapiens, Huh-7, HuH7 cell viability, ~44 hpi): > 2500 nM
- HuH7 Growth, dose-response point (HuH7 cells; Log[inhibitor] (M) -5.602): 6.24E+01 and 5.40E+01 and 5.94E+01
- HuH7 Growth, dose-response point (HuH7 cells; Log[inhibitor] (M) -6.000): 6.34E+01 and 6.90E+01 and 6.75E+01
- HuH7 Growth, dose-response point (HuH7 cells; Log[inhibitor] (M) -6.301): 6.99E+01 and 7.05E+01 and 6.37E+01
- HuH7 Growth, dose-response point (HuH7 cells; Log[inhibitor] (M) -6.602): 7.89E+01 and 8.13E+01 and 7.81E+01
- HuH7 Growth, dose-response point (HuH7 cells; Log[inhibitor] (M) -7.602): 9.65E+01 and 1.01E+02 and 8.52E+01
- HuH7 Growth, dose-response point (HuH7 cells; Log[inhibitor] (M) -8.602): 9.96E+01 and 1.08E+02 and 9.36E+01
- HuH7 Growth, dose-response point (HuH7 cells; Log[inhibitor] (M) -9.602): 1.01E+02 and 1.06E+02 and 1.03E+02
- HuH7 Growth, dose-response point (HuH7 cells; Log[inhibitor] (M) -9.903): 1.05E+02 and 1.11E+02 and 1.08E+02
- induction of rapid resistance (P. falciparum Dd2-2D4 [5]): did not induce rapid resistance
- resistance to NCP26 after selection (P. falciparum Dd2-2D4 [6]; >50 generations (100 days), 2 out of 3 selections): 20-to-80 fold
- generations until resistance arises (P. falciparum Dd2-2D4 [6]; intermittent drug pressure): > 50 generations
